Measurements published in paper PMC8282797, “Strictly regulated agonist-dependent activation of AMPA-R is the key characteristic of TAK-653 for robust synaptic responses and cognitive improvement” (Scientific Reports, 2021).
Where two headings read alike, the source gives them in different places.

Tests used:
[1] = tested on: MK-801-induced working memory deficit in rats; assay: Radial arm maze (RAM) test, MK-801-induced working memory deficit; format: in vivo, rat; settings: for RAM (effective doses): summary
Method: RAM tests were performed using 9-week-old male Long-Evans rats as previously described with a minor modification. Each arm was 50 cm long, 10 cm wide and 40 cm high, and the maze was elevated 50 cm above the floor. Long-Evans rats were food-restricted to 85% of free-feeding body weight throughout the experimental period. Rats were well trained to collect pellets placed on the edge of each arm. The learning criterion for the testing session was defined as 2 errors or fewer for 2 consecutive days. In the testing session, each rat was placed on the maze facing the fixed arm at the start of the trial. The entry of rats into each arm was recorded in sequence until all pellets in the 8 arms were consumed, or 5 min had elapsed. […] Thirty min after dosing of vehicle or MK-801, rats were placed on the maze. Details are described in the Supplementary Information.
The experiment was performed using 9-week-old male Long-Evans rats as described previously (Zajaczkowski et al., 1996) with a minor modification. Each arm was 50 cm long, 10 cm wide and 40 cm high, and the maze was elevated 50 cm above the floor. After being fasted for 24 h, male Long-Evans rats were food-restricted to 85% of free-feeding body weight on the first day of exposure to the maze and throughout the experimental period. The experiment consists of two sessions, training and testing session. In the training session, rats were habituated to the maze and then trained. Reinforcement consisted of 3 food pellets (45 mg each) in the food cup was used. On the first day of habituation to the maze, reinforcements were placed near the entrance and at the mid-point of each arm. Three rats were placed on the maze at one time and allowed to explore and consume the pellets for 8 min. On the second day of habituation, each rat was placed on the maze and allowed 5 min to consume the pellets placed at the mid-point and in the food cup at the end of each arm. From the third day, reinforcement was placed in the food cup at the end of each arm. Rats were well trained to collect pellets placed on the edge of each arm. The learning criterion for the testing session was defined as 2 errors or less for two consecutive days. In the previous day of the testing session, baseline level of performance was qualified to confirm that rats completed collecting all pellets placed in the 8 arms with two errors or less. In the testing session, each rat was placed on the maze facing away from the experimenter and facing the fixed arm at the start of the trial. The entry of rats into each arm was recorded in sequence. Rats were allowed to explore until all pellets in the 8 arms were consumed, or 5 min had elapsed. Entry into an arm previously chosen was counted as an error. […] […] Thirty min after dosing of vehicle or MK-801, rats were placed on the maze. Data were indicated as the mean ± SEM in the testing session.

AMPA-R = assay: Whole-cell patch clamp recording using rat primary hippocampal neurons; format: cell-based; parameters: key to Single effect on AMPA-R currents: -: No effect or slight effect; +: Potent; ++: Very potent; settings: for Single effect on AMPA-R currents: summary grade
Method: Whole-cell patch clamp recording using primary neurons between 11 and 20 days in vitro was performed as previously described. Patch electrodes with tip resistances ranging from 3 to 5 MΩ were filled with an intracellular solution containing: 135 mM CsCl, 1 mM MgCl2, 10 mM HEPES, 10 mM EGTA, 4 mM MgATP, and 0.3 mM Na2GTP, adjusted to pH7.3 with CsOH (osmolality 275–295 mosm/L). The extracellular solution contained: 140 mM NaCl, 4 mM KCl, 2 mM CaCl2, 1 mM MgCl2, 10 mM HEPES, 5 mM NaHCO3, 10 mM D( +)-glucose, and 0.001 mM TTX, adjusted to pH7.4 with NaOH (osmolality 300–315 mosm/L). All experiments were carried out at room temperature. Neurons were voltage-clamped at − 80 mV. Steady-state inward currents were evoked by the application of AMPA and AMPA potentiator via Y-tube perfusion system. Signals were recorded using a Multiclamp 700B amplifier (Molecular Devices, LLC, Orleans Drive Sunnyvale, CA), digitized using a Digidata 1440A interface board, filtered between 2 kHz, sampled at 10 kHz, and analyzed with pClamp10 software. Details are described in the Supplementary Information.
Whole-cell patch clamp technique was used for recording current from cultured rat hippocampal neurons between 11-20 days in vitro. Patch electrodes with tip resistances ranging from 3 to 5 MΩ were filled with an intracellular solution containing: 135 mM CsCl, 1 mM MgCl2, 10 mM HEPES, 10 mM EGTA, 4 mM Mg-ATP, 0.3 mM Na2-GTP, adjusted to pH7.3 with CsOH (osmolality 275-295 mosm/L). The extracellular solution contained: 140 mM NaCl, 4 mM KCl, 2 mM CaCl2, 1 mM MgCl2, 10 mM HEPES, 5 mM NaHCO3, 10 mM D(+)-glucose, and 0.001 mM TTX, adjusted to pH7.4 with NaOH (osmolality 300-315 mosm/L). All experiments were carried out at room temperature and performed using an Axopatch-1D amplifier with pCLAMP 9 software (Molecular Devices, LLC, Orleans Drive Sunnyvale, CA), low-pass filtered at 2 kHz, and stored on the computer hard-disk for off-line analysis. Neurons were voltage-clamped at –80mV. Steady-state inward currents were evoked by the application of AMPA and AMPA potentiator via Y-tube perfusion system. AMPA-R potentiator was applied 20 s prior to 10-s AMPA stimulus. The current at all drug concentrations tested was normalized by the steady-state current induced by 1 μM AMPA. In the absence of AMPA, the maximum current during 60-s application of AMPA-R potentiator was normalized by the steady-state current induced by 100 μM AMPA.

CC1=CN2CCS(=O)(=O)N=C2C(c2ccc(OC3CCCCC3)cc2)=N1 [TAK-653, 9-[4-(Cyclohexyloxy)phenyl]-7-methyl-3,4-dihydropyrazino[2,1-c][1,2,4]thiadiazine 2,2-dioxide]
MK-801-induced deficits in RAM task ([1]; 0.1, 0.3, 3 and 10 mg/kg, p.o., MK-801 0.08 mg/kg, s.c.): significantly ameliorated
RAM (effective doses) [1]: Effective (0.1, 0.3, 3, 10)
Potency relative to LY451646 in potentiation of AMPA-elicited currents (times less potent) (AMPA-R): 2.3 times
AMPA-R currents, Agonistic effect @30 μM (AMPA-R; absence of AMPA, % of AMPA (100 μM)-induced steady-state response): 1.7%
EC50 (AMPA-R; in the presence of 1 μM AMPA, read-out: AMPA-R currents, Potentiation EC50): 4.4 µM
Single effect on AMPA-R currents (AMPA-R): ─

Cc1onc(O)c1CC(N)C(=O)O (stereo not drawn) [AMPA, alpha-amino-3-hydroxy-5-methyl-4-isoxazole-propionic acid]
Working memory in the RAM test ([1]; 0.1 to 3 mg/kg, i.p., MK-801 0.08 mg/kg, s.c.): neither LY451646 at 0.03 to 1 mg/kg, p.o. nor AMPA at 0.1 to 3 mg/kg, i.p. improve
RAM (effective doses) [1]: No effect
EC50 (AMPA-R; single application, read-out: EC50, increase of AMPA-R-mediated currents): 45 µM
Single effect on AMPA-R currents (AMPA-R): ++
